System: C. difficile spores
Assay: Inhibition of germination of spores and/or inhibition of growth in Duncan and Foster growth medium
Type: cell-based, Clostridium difficile
Conditions: Clostridioides difficile; 0.7 mM in growth medium; by 17 h; read-out: inhibition of spore germination

Work on `CC/C=C\C/C=C\C/C=C\CCCCCCCC(=O)O` [linolenic acid] yielded an inhibition at 700 µM of about 5%.
